Laboratory results: patent publication US9242012B2, “Methods for killing PSMA-expressing, taxane-resistant cancer cells” (PSMA Development Company, LLC, priority 2008, dated 2016)
Where a SMILES comes first, the peptide text is derived from it. [ ]: non-standard residue; d: D form. The star is where a group is joined. Dolaproine = CO[C@@H]([C@@H]1CCCN1)[C@@H](C)C(=O)O; Dil = CC[C@H](C)[C@H](NC)[C@@H](CC(=O)O)OC; X1 = C[C@@H](N*)[C@@H](O)c1ccccc1; NMeV = CN[C@H](C(=O)O)C(C)C

Key:
[1] = Phase 1 dose-escalation study of PSMA ADC: pharmacokinetics (ELISA, LC/MS/MS); type: in vivo, human
Description: An open-label, dose-escalation phase 1 study of PSMA ADC (comprising MMAE) in patients with taxane refractory metastatic prostate cancer (metCRPC) was initiated. The objectives of the study were to (1) determine a maximum tolerated dose (MTD) for PSMA ADC administered once every 3 weeks; (2) assess the safety, tolerability, pharmacokinetics (PK) and pharmacodynamics (PD) of PSMA ADC across the dose-escalation range; (3) assess immunogenicity; and (4) assess antitumor activity. PSMA ADC in saline was administered by IV infusion Q3 W for up to 4 cycles. Subjects received either 0.4 mg/kg, 0.7 mg/kg, 1.1 mg/kg, or 1.8 mg/kg or will receive 2.0 mg/kg (at weeks 1, 4, 7 and 10).
Adverse events, PK, PSA, circulating tumor cells, clinical disease progression and immunogenic response to PSMA ADC continued to be assessed (FIGS. 19-21). Serum concentrations of PSMA ADC and total antibody were measured by an enzyme-linked immunosorbent assay (ELISA) method, and free MMAE was measured by liquid chromatography/mass spectrometry/mass spectrometry (LC/MS/MS) method. Individual patients report bone pain reduction as described below.

C4-2 cells [2] = system: C4-2 cells
Protocol: Male athymic nude mice, 6-8 weeks old, obtained from Charles River Laboratories, Inc., were implanted with Matrigel subcutaneously into the right flank of each mouse with 5 million C4-2 cells (androgen-independent human prostate cancer cell line). At day 14, tumor size was measured by length and width in mm (millimeter). The volume was calculated using the formula: volume (mm^3)=[(length)×(width)^2]/2. […] Animals were dosed weekly through the tail vein.
When the tumor volume of an animal in the docetaxel treatment group exceeded 400 mm^3, this animal was randomized, at a 1:1 ratio, into one of the two treatment subgroups: one group continued to receive docetaxel at 2 mg/kg weekly (n=18), and the second group was switched to PSMA ADC treatment at 6 mg/kg/IV weekly (n=18). Mice whose tumors durably responded to docetaxel (≦400 mm^3) continued to receive docetaxel at 2 mg/kg/IV weekly. Treatment effects were assessed by measuring tumor volume and overall survival. Animal body weight was also measured. Animals with tumor size ≧2000 mm^3 were sacrificed.

C4-2 cells [3] = test: Single C4-2 xenograft mouse given docetaxel, then switched to PSMA ADC after relapse; type: in vivo, nude mouse
Protocol: The in vivo therapeutic efficacy of PSMA ADC in a subcutaneous xenograft model of human prostate cancer was assessed. […] C4-2 is an androgen-independent human prostate cancer cell line. At day 11, the tumor size of each mouse was measured, by length and width in millimeters, using a caliper (Mitutoyo, Aurora, Ill.). The tumor volume was calculated using the following formula: Volume(mm^3)=[(Length)×(Width)^2]/2
It was given 12 doses of docetaxel, IP, at 12 mg/kg weekly. As shown in FIG. 3 and Table 2, the animal initially responded to the docetaxel treatment, the tumor volume was reduced to ˜300 mm^3 at day 60, but then it progressed to ˜800 mm^3 at day 100. The treatment of docetaxel was stopped, and PSMA ADC was given IV at 6 mg/kg for an additional 12 doses, weekly. […] PSMA ADC can treat tumors that fail docetaxel treatment.

C4-2 cells [4] = test: C4-2 xenograft, PSMA ADC after docetaxel treatment failure (Example 3); type: in vivo, athymic nude mice
Protocol: An experiment (FIG. 10) was designed to evaluate PSMA ADC effectiveness after docetaxel treatment failure. […] At day 14, animals having a tumor volume between 100-200 mm^3 were randomized (randomization #1) into two treatment arms: (1) vehicle control (PBS buffer, n=10); (2) docetaxel at 2 mg/kg/IV weekly (n=50) according to tumor volume. The mean tumor volume was 138.0 and 138.1 mm^3 for the vehicle control and docetaxel treatment groups, respectively, at randomization.
All animals then received intravenous injections of PBS or docetaxel (Sigma, St. Louis, Mo.) at 2 mg/kg via tail vein in a volume of 0.1 mL. Tumor sizes were measured twice per week after tumor implantation, and the average tumor volume for the two groups before the second randomization was initiated were plotted (FIG. 11).
Animals were randomized into these two treatment subgroups continuously over the period of 28 days to 70 days post tumor implantation. By the end of day 70, there were 28 mice whose tumor volume had exceeded 400 mm^3, with 14 mice randomized into the PSMA ADC treatment subgroup (mean tumor volume of 695 mm^3 and 14 mice randomized into the continued docetaxel treatment subgroup (mean tumor volume of 642 mm^3 with a p-value of 0.28 (student t-test)).
The effect of PSMA ADC treatment on tumor growth after docetaxel failure was assessed by comparing tumor reduction after the second randomization. […]

[5] = system: hormone-refractory prostate cancer; conditions: cited from earlier work

Structure (SMILES)	exposure to free MMAE versus dose ([1]; after IV PSMA ADC 0.4-1.8 mg/kg)	exposure to free MMAE relative to PSMA ADC ([1]; after IV PSMA ADC, serum, LC/MS/MS)	tumor size of individual animals after second randomization (C4-2 cells [2]; PSMA ADC (panel A) or continued docetaxel (panel B))	average body weight change post second randomization (C4-2 cells [2]; PSMA ADC versus continued docetaxel, p<0.001)	median survival post second randomization (C4-2 cells [2]; continued docetaxel 2 mg/kg weekly, n=18)	animals sacrificed due to large tumors (>2,000 mm^3) (C4-2 cells [2]; continued docetaxel treatment group, day 157 post second randomization)	tumor volume (C4-2 cells [3]; day 60, docetaxel IP 12 mg/kg weekly, start ~500 mm^3 at day 21)	tumor volume (C4-2 cells [3]; day 100, progressed on docetaxel IP 12 mg/kg weekly)	tumor volume course after second randomization (docetaxel failure, >400 mm^3) (C4-2 cells [4]; PSMA ADC 6 mg/kg IV weekly or continued docetaxel 2 mg/kg)	tumor growth compared to vehicle control (C4-2 cells [4]; docetaxel 2 mg/kg IV weekly, n=50, before second randomization, by day 21 p=0.025)	increase in survival ([5]; docetaxel (Taxotere) in combination with prednisone, advanced prostate cancer)	survival benefit ([5]; docetaxel in combination with prednisone)
CC[C@H](C)[C@@H]([C@@H](CC(=O)N1CCC[C@H]1[C@H](OC)[C@@H](C)C(=O)N[C@H](C)[C@@H](O)c1ccccc1)OC)N(C)C(=O)[C@@H](NC(=O)[C@@H](NC)C(C)C)C(C)C [MMAE, monomethylauristatin norephedrine] (H-[NMeV]V[Dil][Dolaproine]-X1)	dose proportional	< 0.1%										
CC(=O)O[C@@]12CO[C@@H]1C[C@H](O)[C@@]1(C)C(=O)[C@H](O)C3=C(C)[C@@H](OC(=O)[C@H](O)[C@@H](NC(=O)OC(C)(C)C)c4ccccc4)C[C@@](O)([C@@H](OC(=O)c4ccccc4)[C@H]21)C3(C)C [docetaxel]			tumors continued to progress except in one animal	lost weight	45 days	16 of 18	~300 mm^3	~800 mm^3	grew continuously	reduced tumor growth compared to control	2-3 months	2.4 month
